Source: patent US20220274913A1, “PROCESS FOR MANUFACTURING A SUBSTITUTED CYCLOHEXANECARBONITRILE” (SOLVAY SA, priority 2019, published 2022)
“Also recorded” adds a separate entry of the source.

How the values were obtained:
Format in all cases: physicochemical
[1] = Solubility tests of hydrogenated quinones (QH) in solvent mixtures (polar solvent + S-150), synthetic EQ/ETQ working solutions; conditions: for Test level values (theoretical gH2O2/kg of WS), comparison in words: Table 1; for Test level (gH2O2/kg) measured at 60° C. / Test level (gH2O2/kg) measured at 65° C. / Test level (gH2O2/kg) measured at 70° C. / Test level (gH2O2/kg) measured at 50° C. / Test level (gH2O2/kg) measured at 55° C.: 34*QH/240
Protocol: The determination of the QH solubility was performed on synthetic EQ/ETQ working solutions. These quinones mixed in the tested solvents have been hydrogenated to a fixed level and cooled down successively to 3 different temperatures before the measurement (min. 3 hours to stabilize the system between each measurement). The conditions applied for these tests were:
(*) the polar solvents tested were sextate, decanenitrile, 2,2,6-trimethylcyclohexanecarbonitrile (C10A), 2,2,5,6-tetramethylcyclohexanecarbonitrile (C11A) and 1,2,2,4-tetramethylcyclohexylcarbonitrile (C11B). […] In this Figure, Kb stands for the weight partition coefficient of hydrogen peroxide between the water and the working solution (mixture of quinones and organic solvents). It is calculated using the following formula: […]
The maximum solubility of a hydrogenated quinone (QH) in a solvent mixture is directly correlated with the productivity of the working solution. The higher is the QH solubility, the higher will be the theoretical quantity of hydrogen peroxide achievable per kg of WS (Productivity). These theoretical values, designated by the terms “Test level (gH2O2/kg of WS) measured at . . . ” in Table 1, were calculated as follows: […]
1 mole (240 g) ETQH (which actually is the QH in our Examples) per kg of WS will produce 1 mole (34 g) of H2O2 per kg of WS.

[2] = Weight partition coefficient Kb of hydrogen peroxide between the water and the working solution; H2O2 in organic phase
Protocol: (*) the polar solvents tested were sextate, decanenitrile, 2,2,6-trimethylcyclohexanecarbonitrile (C10A), 2,2,5,6-tetramethylcyclohexanecarbonitrile (C11A) and 1,2,2,4-tetramethylcyclohexylcarbonitrile (C11B). […] In this Figure, Kb stands for the weight partition coefficient of hydrogen peroxide between the water and the working solution (mixture of quinones and organic solvents). It is calculated using the following formula:
Kb=(g H2O2/kg aqueous phase)/(g H2O2/kg organic phase)

[3] = TOC in the H2O2 obtained (solubility of the solvent in H2O2); conditions: for Solubility of the solvent in H2O2 (as indicated by level of TOC in the H2O2 obtained): comparison in words, Table 2
[4] = Approx density of polar solvents at ambient temperature
[5] = Polar solvent 30% / Solvesso 150 70%
[6] = Polar solvent 40% / Solvesso 150 60%
[7] = Polar solvent 50% / Solvesso 150 50%
[8] = Polar solvent 60% / Solvesso 150 40%
[9] = Polar solvent 70% / Solvesso 150 30%
[10] = polar solvent 77% / S150 23%, listed as 4MCH-CN

Molecule | Test level (gH2O2/kg) measured at 60° C. ([1]; polar solvent 50% / S150 50%) [gH2O2/kg] | Test level (gH2O2/kg) measured at 65° C. ([1]; polar solvent 50% / S150 50%) [gH2O2/kg] | Test level (gH2O2/kg) measured at 70° C. ([1]; polar solvent 50% / S150 50%) | H2O2 in OP [2, 5] [g/kg] | H2O2 in OP [2, 6] [g/kg] | H2O2 in OP [2, 7] [g/kg] | H2O2 in OP [2, 8] [g/kg] | H2O2 in OP [2, 9] [g/kg] | TOC in H2O2 [3, 5] [ppm] | TOC in H2O2 [3, 6] [ppm] | TOC in H2O2 [3, 7] [ppm] | TOC in H2O2 [3, 8] [ppm] | TOC in H2O2 [3, 9] [ppm] | Approx density of polar solvents at amb T° [4] [kg/L] | Solubility of the solvent in H2O2 (as indicated by level of TOC in the H2O2 obtained) [3] | Test level values (theoretical gH2O2/kg of WS), comparison in words [1] | further results
CC1CCCC(C)(C)C1C#N (stereo not shown) [C10A, 2,2,6-trimethylcyclohexanecarbonitrile] | 10.5 | 11.4 | full soluble | 0.9821 | 1.466 | 2.135 | 3.08 | 3.871 | 928 | 1042 | 1248 | 1456 | 1684 | ~0.89 |  | much higher (almost the double in fact) than with sextate or a linear nitrile like decanenitrile | QH (g/kg) measured at 70° C. ([1]; polar solvent 50% / S150 50%): full soluble; Test level (gH2O2/kg) measured at 60° C. ([1]; polar solvent 60% / S150 40%): 15.6 gH2O2/kg; QH (g/kg) measured at 65° C. ([1]; polar solvent 60% / S150 40%): full soluble; Test level (gH2O2/kg) measured at 65° C. ([1]; polar solvent 60% / S150 40%): full soluble; QH (g/kg) measured at 70° C. ([1]; polar solvent 60% / S150 40%): full soluble; Test level (gH2O2/kg) measured at 70° C. ([1]; polar solvent 60% / S150 40%): full soluble
CC1CCC(C)(C)C(C#N)C1C (stereo not shown) [C11A, 2,2,5,6-tetramethylcyclohexanecarbonitrile] | 9.8 | 10.8 | 14.8 gH2O2/kg | 0.919 | 1.271 |  | 2.332 | 2.786 | 281 | 268 | 269 | 274 | 291 | ~0.895 | less soluble in H2O2 than solvent C10A | reach the absolute maximum theoretical value | Test level (gH2O2/kg) measured at 50° C. ([1]; polar solvent 50% / S150 50%): 7.7 gH2O2/kg; Test level (gH2O2/kg) measured at 55° C. ([1]; polar solvent 50% / S150 50%): 8.6 gH2O2/kg; Test level (gH2O2/kg) measured at 50° C. ([1]; polar solvent 77% / S150 23%): 11.9 gH2O2/kg; Test level (gH2O2/kg) measured at 55° C. ([1]; polar solvent 77% / S150 23%): 12.8 gH2O2/kg; QH (g/kg) measured at 60° C. ([1]; polar solvent 77% / S150 23%): complete solubility; Test level (gH2O2/kg) measured at 60° C. ([1]; polar solvent 77% / S150 23%): 16.3 gH2O2/kg; Test level (gH2O2/kg) measured at 60° C. [1, 10]: full soluble; QH (g/kg) measured at 60° C. [1, 10]: full soluble; QH (g/kg) measured at 65° C. ([1]; polar solvent 77% / S150 23%): full soluble; Test level (gH2O2/kg) measured at 65° C. ([1]; polar solvent 77% / S150 23%): full soluble; QH (g/kg) measured at 70° C. ([1]; polar solvent 77% / S150 23%): full soluble; Test level (gH2O2/kg) measured at 70° C. ([1]; polar solvent 77% / S150 23%): full soluble
CC1CCC(C)(C#N)C(C)(C)C1 (stereo not shown) [C11B, 1,2,2,4-tetramethylcyclohexanecarbonitrile] |  |  |  |  | 1.632 | 2.487 | 3.167 | 3.805 |  | 308 | 328 | 280 | 290 |  | less soluble in H2O2 than solvent C10A |  | Test level (gH2O2/kg) measured at 55° C. ([1]; polar solvent 52% / S150 48%): 9.4 gH2O2/kg; Test level (gH2O2/kg) measured at 60° C. ([1]; polar solvent 52% / S150 48%): 10.8 gH2O2/kg; Test level (gH2O2/kg) measured at 65° C. ([1]; polar solvent 52% / S150 48%): 15.1 gH2O2/kg; QH (g/kg) measured at 70° C. ([1]; polar solvent 52% / S150 48%): full soluble; Test level (gH2O2/kg) measured at 70° C. ([1]; polar solvent 52% / S150 48%): full soluble; Test level (gH2O2/kg) measured at 55° C. ([1]; polar solvent 70% / S150 30%): 15.5 gH2O2/kg; QH (g/kg) measured at 60° C. ([1]; polar solvent 70% / S150 30%): complete solubility; also recorded: full soluble; QH (g/kg) measured at 65° C. ([1]; polar solvent 70% / S150 30%): full soluble; Test level (gH2O2/kg) measured at 65° C. ([1]; polar solvent 70% / S150 30%): full soluble; QH (g/kg) measured at 70° C. ([1]; polar solvent 70% / S150 30%): full soluble; Test level (gH2O2/kg) measured at 70° C. ([1]; polar solvent 70% / S150 30%): full soluble

Continued, in another order:

Test level (gH2O2/kg) measured at 60° C. ([1]; polar solvent 50% / S150 50%) [gH2O2/kg] | Test level (gH2O2/kg) measured at 65° C. ([1]; polar solvent 50% / S150 50%) [gH2O2/kg] | Test level (gH2O2/kg) measured at 70° C. ([1]; polar solvent 50% / S150 50%) | H2O2 in OP [2, 5] [g/kg] | H2O2 in OP [2, 6] [g/kg] | H2O2 in OP [2, 7] [g/kg] | H2O2 in OP [2, 8] [g/kg] | H2O2 in OP [2, 9] [g/kg] | TOC in H2O2 [3, 5] [ppm] | TOC in H2O2 [3, 6] [ppm] | TOC in H2O2 [3, 7] [ppm] | TOC in H2O2 [3, 8] [ppm] | TOC in H2O2 [3, 9] [ppm] | Approx density of polar solvents at amb T° [4] [kg/L] | Solubility of the solvent in H2O2 (as indicated by level of TOC in the H2O2 obtained) [3] | Molecule | Test level values (theoretical gH2O2/kg of WS), comparison in words [1] | further results
 |  |  |  |  |  |  |  |  |  |  |  |  | ~0.83 |  | CCCCCCCCCC#N [Decanenitrile, decanenitrile, reference compound] |  | Test level (gH2O2/kg) measured at 60° C. ([1]; polar solvent 35% / S150 65%): 8.8 gH2O2/kg; Test level (gH2O2/kg) measured at 65° C. ([1]; polar solvent 35% / S150 65%): 10.1 gH2O2/kg; Test level (gH2O2/kg) measured at 70° C. ([1]; polar solvent 35% / S150 65%): 11.1 gH2O2/kg
 |  |  |  |  |  |  |  |  |  |  |  |  | ~0.94 |  | methyl cyclohexyl acetate [Sextate, reference compound] |  | QH (g/kg) measured at 60° C. ([1]; polar solvent 40% / S150 60%): 52 g/kg; Test level (gH2O2/kg) measured at 60° C. ([1]; polar solvent 40% / S150 60%): 7.4 gH2O2/kg; QH (g/kg) measured at 65° C. ([1]; polar solvent 40% / S150 60%): 60.8 g/kg; Test level (gH2O2/kg) measured at 65° C. ([1]; polar solvent 40% / S150 60%): 8.6 gH2O2/kg; QH (g/kg) measured at 70° C. ([1]; polar solvent 40% / S150 60%): 68 g/kg; Test level (gH2O2/kg) measured at 70° C. ([1]; polar solvent 40% / S150 60%): 9.6 gH2O2/kg
